Patent US9546167B2, “Radiosynthesis of tau radiopharmaceuticals” (The General Hospital Corporation, priority 2013, dated 2017)

Assays:
[1] = test system: paired helical filaments of tau (PHF-tau); details: cited from earlier work
[2] = test system: hyperphosphorylated tau fibrillar aggregates; details: PET imaging, human subjects; cited from earlier work
[3] = lipophilicity of precursor (HPLC analysis remark); assay type: physicochemical; details: qualitative
Experimental: (§1) Three consecutive productions of [^18F]T807 were carried out to validate this radiopharmaceutical for human use. […] Due to the increased lipophilicity of 1b, an additional HPLC analysis was performed using an X-Select HSS T3 column (4.6×150 mm, 3.5 μm) and eluted with 50% CH3OH/H2O (pH 2 adjusted with HCl) with a flow rate of 1.2 mL/min, monitored at λ=254 nm. Radio-TLC was performed to verify the radiochemical purity of [^18F]T807 using silica gel plates and 80:20 (v/v) CH2Cl2:CH3OH mobile phase. Radio-TLC confirmed high radiochemical purity (>97%). […] The half-life was verified to be 109.7 minutes, as determined by a dose calibrator, and no long lived isotopes were observed (5 days), as determined by analysis on a HPGE detector after ^18F-decay. Formulated [^18F]T807 was free of pyrogens (Charles River Endosafe® PTS), sterile, and passed the Kryptofix® spot test (<50 μg/mL). […] Using this new methodology, [^18F]T807 was successfully validated for human PET studies, meeting all FDA and USP requirements for a PET radiopharmaceutical.

[4] = solubility of precursor in reaction / organic solvents; assay type: physicochemical
Experimental: The uncorrected radiochemical yield (RCY) of [^18F]T807 was 14±3% (n=3) and the total synthesis time was 60 minutes, including formulation. The product was prepared consistently with >95% radiochemical purity and the specific activity at the end of synthesis was 216±60 GBq/μmol (5837±1621 mCi/μmol). […] Therefore, the precursor could be added remotely to the reaction vial with minimal volume and eliminated the possibility of the precursor precipitating out of solution before use. Moreover, the fluorination condition simultaneously removed the t-BOC protecting group so there was no need for an additional deprotection step. Secondly, without being bound by any theory, it is thought that the protecting group may also be responsible for the higher radiochemical yields by inhibiting side reactions with the —NH of the indole moiety.

[5] = stability of formulated product by HPLC and radio-TLC, clarity and pH; assay type: physicochemical; details: over a period of 6 hours
Experimental: as §1

[18F]CCC1CCN(c2ccn3c(n2)nc2ccccc23)CC1 [[^18F]T808, reference compound]
potency in vitro for paired helical filaments of tau (PHF-tau) [1]: excellent
selectivity in vitro for PHF-tau over Aβ-plaques [1]: excellent

CC(=C(C#N)C#N)c1ccc2cc(N(C)CCF)ccc2c1 [[^18F]FDDNP]
distinction between amyloid-β plaques and tau [2]: does not distinguish
imaging of hyperphosphorylated tau fibrillar aggregates [2]: effective

CC(C)(C)OC(=O)n1c2ccncc2c2ccc(-c3ccc([N+](=O)[O-])nc3)cc21 [Compound 1b, tert-butyl 7-(6-nitropyridin-3-yl)-5H-pyrido[4,3-b]indole-5-carboxylate]
lipophilicity [3]: increased
solubility in the reaction solvent (DMSO) ([4]; compared with 1a): increased

[18F]c1ccc(-c2ccc3c(c2)[nH]c2ccncc23)cn1 [[^18F]T807]
pH [5]: 5.5
stability as measured by HPLC and radio-TLC [5]: maintained stability
potency in vitro for paired helical filaments of tau (PHF-tau) [1]: excellent
selectivity in vitro for PHF-tau over Aβ-plaques [1]: excellent

O=[N+]([O-])c1ccc(-c2ccc3c(c2)[nH]c2ccncc23)cn1 [Compound 1a, 7-(6-nitropyridin-3-yl)-5H-pyrido[4,3-b]indole, reference compound]
solubility in most organic solvents [4]: only sparingly soluble
